Like-named read-outs stand apart in the source and are kept apart here.
Tests used:
orthotopic GBM6 tumors [1] = assay: Orthotopic GBM6 xenografts, tumor volume by three-dimensional brain reconstruction; type: in vivo, mouse; conditions: 25 mg/kg i.v. days 30/33/36, day 45
Protocol: (§1) Approximately 100′000 cells of GBM6 GFP sh0 or shEB1 cells were stereotactically injected into the subventricular zone (0.5 mm anterior to bregma, −1 mm lateral, and −2.1 mm deep to the cortex surface) of 6-week-old athymic Nude mice. Grafted mice were intravenously treated with 25 mg/kg BAL101553 (three times at 30, 33 and 36 days after glioma implantation) or with vehicle (control). Forty five days after implantation, three animals of each group were sacrificed for analysis of tumor volumes (by three-dimensional brain reconstructions) or for FACS analysis.
For analysis of tumor volumes, mice were anesthetized and perfused with 4% paraformaldehyde. Brains were removed and fixed in 4% paraformaldehyde for 2 days at 4° C., then rinsed and conserved in PBS until dissection. Brains were entirely cut into 50-100-μm-thick sections using Vibratome (Leica) following the sagittal axis. A total of 60 sections per brain were obtained. Mapping and analysis of GFP-injected cells and tumors were performed by using a Leica DMLB fluorescence microscope, a Leica DC300F digital camera, and the Leica FW4000 imaging software (Leica). Three-dimensional brain reconstructions were obtained using FreeD software (Andrey P., Free-D: an integrated environment for three-dimensional reconstruction from serial sections. Journal of Neuroscience Methods. 2005; 145(1-2):233-244). […]

orthotopic GBM6 tumors [2] = assay: FACS analysis of A2B5 brain tumor cancer stem cells from orthotopic GBM6 tumors; type: in vivo, mouse; conditions: 25 mg/kg i.v. days 30/33/36, day 45
Protocol: as §1
After anesthesia, animals were perfused with PBS, and brains were removed and stored in HBSS buffer containing 2% FBS. Cells were dissociated in a cocktail of enzymes (DNase I (Roche, Rotkreuz, Switzerland), Collagenase D (Roche) and V (Sigma-Aldrich) with GentleMACS dissociator (Miltenyi Biotech)). The reaction was stopped by adding DMEM containing 10% FCS. The suspension was filtered and cells were resuspended in 40% Percoll (Sigma-Aldrich). After centrifugation, myelin was removed and cells were resuspended in HBSS buffer containing 2% FCS. Cells were incubated in HBSS containing 2% FCS with A2B5-APC and CD133-PE antibodies for 10 minutes. Cells were then fixed with 10% paraformaldehyde for 20 minutes and analyzed using flow cytometry. A total of 100′000 events were counted for each sample and data were recorded with the CellQuest Pro Software and analyzed using FlowJo software choosing the Dean-Jet-Fox model analysis.

GBM6 CSCs [3] = assay: FACS analysis of A2B5 positive GBM6 brain tumor CSCs in vitro; type: cell-based, human; conditions: 6 nM, 72 hours
Protocol: GBM6 cells were seeded at 300′000 cells/well into poly-DL-ornithine-coated 6-well plates (10 μg/mL)(Sigma-Aldrich), in stem cell-permissive medium (5 mg/mL Insulin, 0.1 mM Putrescine, […] Transferrin, 2.10^−8M Progesterone, 50 mg/mL Penicillin-Streptomycin and growth factors including 10 ng/mL basic fibroblast growth factor (bFGF), 20 ng/mL epidermal growth factor (EGF) and B27). One day later, cells were treated with BAL27862 for 72 hours. Then, cells were trypsinized, suspended in Hanks' Balanced Salt Solution (HBSS) buffer (Life technologies) containing blocking solution (Miltenyi Biotec) and incubated with A2B5-APC (clone 105HB29, reference 130-093-582) and CD133-PE (clone 293C3, reference 130-090-853) antibodies (Miltenyi Biotec) for 10 minutes. Cells were then fixed with 10% paraformaldehyde (Sigma-Aldrich) for 20 minutes and analyzed using flow cytometry (FACS Calibur™ BD Biosciences). A total of 100′000 events were counted for each sample and data were recorded with the CellQuest Pro Software (BD Biosciences) and analyzed using FlowJo software (Tree Star Inc., San Carlos, Calif.) and the Dean-Jet-Fox model analysis.

GBM6 CSCs [4] = assay: Clonogenic survival assay; type: cell-based, human; conditions: 6 and 10 nM, 72 hours
Protocol: Cells were grown in previously poly-DL-ornithine (Sigma-Aldrich) coated 6-well plates (1000 cells/well) and after treatment for 72 hours with BAL27862, incubated for up to 5 days. Colonies were stained with 1% Crystal-violet solution in 20% methanol (Sigma-Aldrich). The colonies with more than 50 cells were counted. At least three independent experiments were performed.

GBM9 CSCs [5] = assay: Transwell cell migration assay; type: cell-based, human; conditions: 5 hours transmigration
Protocol: (§2) Stem cells (50′000) were poured on the upper side of a transwell migration chamber ([…] filter, BD) in DMEM. The lower side of the chamber was filled with DMEM, supplemented with 10% FCS. Cells were allowed to transmigrate for 5 hours and then chambers were removed. […] After washing and drying, pictures of six fields per condition were imaged at a magnification of 10× and transmigrated cells were counted.

GBM6 CSCs [6] = assay: Transwell cell migration assay; type: cell-based, human
Protocol: as §2

GBM6 CSCs [7] = assay: Self-renewal capacity determination (sphere formation); type: cell-based, human; conditions: 6 nM, 72 hours
Protocol: GBM6 cells were seeded in previously poly-DL-ornithine (Sigma-Aldrich) coated 6-well plates (150′000 cells/well). After 24 hours, cells were treated or not with BAL27862 for 72 hours. At the end of treatment, the supernatant was removed and cells were harvested, dissociated into single cells and plated in 96-well plates (1-5 cells/well). Eight days later, the spheres were counted under an inverted light microscope (Leica DMI 4000B) (Leica, Saint Jorioz, France). Three independent experiments were performed.

GBM9 CSCs [8] = assay: Cytotoxic assay (sulforhodamine B growth inhibition, 72 hours); type: cell-based, human; conditions: at least three independent experiments, read-out: EC50 +/− SEM, cytotoxic activity
Protocol: (§3) Cells (5000 cells/well) were seeded in previously poly-DL-ornithine (Sigma-Aldrich) coated 96-well plates (10 μg/mL) and allowed to grow for 24 hours before treatment with BAL27862. Growth inhibition of cells was measured after 72 hours by using a sulforhodamine B assay kit (Sigma-Aldrich). Cell density was analyzed using a microplate reader (Labsystems Multiscan, Thermo, Villebon sur Yvette, France) and analysis of EC50 were performed with GraphPad 5.0 statistical software (GraphPad Software, La Jolla, USA). At least three independent experiments were performed.

GBM6 CSCs [9] = assay: as above; type: cell-based, human; conditions: at least three independent experiments, read-out: EC50 +/− SEM, cytotoxic activity
Protocol: as §3

[10] = GBM6 GFP shEB1 (EB1 downregulated)
[11] = GBM6 GFP sh0 (normal EB1 levels)

SMILES: N#CCCNc1nonc1-c1nc2ccccc2n1CC(=O)c1ccc(NC(=O)[C@@H](N)CCCCN)cc1 [BAL101553]
- tumor mass (size) and tumor spreading versus vehicle (orthotopic GBM6 tumors [1]; GBM6 GFP sh0 (EB1-expressing) tumors): clear reduction of the tumor mass (size) and in tumor spreading
- tumor mass (size) and tumor spreading versus vehicle (orthotopic GBM6 tumors [1]; GBM6 GFP shEB1 (EB1 negative) tumors): minimal
- proportion of A2B5 positive GBM6 cells (orthotopic GBM6 tumors [2]; EB1 downregulated GBM6 tumors): ~80%
- proportion of A2B5 negative GBM6 cells (orthotopic GBM6 tumors [2]; EB1 expressing GBM6 tumors): 80%
- proportion of A2B5 positive GBM6 cells (orthotopic GBM6 tumors [2]; EB1 expressing GBM6 tumors): 20%

SMILES: N#CCCNc1nonc1-c1nc2ccccc2n1CC(=O)c1ccc(N)cc1 [BAL27862, 3-(4-{1-[2-(4-amino-phenyl)-2-oxo-ethyl]-1H-benzoimidazol-2-yl}-furazan-3-ylamino)-propionitrile]
- A2B5 positive cell number (GBM6 CSCs [3]; GBM6 GFP sh0 (EB1 expressed)): significant inhibition
- A2B5 positive cell number (GBM6 CSCs [3]; [10]): less sensitive
- clonogenic capacity (colony formation) (GBM6 CSCs [4]; [11]): impaired the clonogenic capacity of GBM6 CSCs at the sub-toxic doses of 6 and 10 nM in a statistically significant manner
- clonogenic capacity (colony formation) (GBM6 CSCs [4]; GBM6 GFP shEB1 (EB1 levels downregulated)): only in the EB1-expressing cells
- inhibition of cell migration (GBM9 CSCs [5]; GBM9, cytotoxic 20 nM): drastically inhibited the migration
- inhibition of cell migration (GBM9 CSCs [5]; GBM9, non-cytotoxic 6 nM): did not respond
- inhibition of cell migration (GBM6 CSCs [6]; EB1 downregulated GBM6 cells (shEB1), 6 nM): inhibitory effect of BAL27862 treatment was drastically reduced
- inhibition of cell migration (GBM6 CSCs [6]; GBM6, cytotoxic 20 nM, 5 hours transmigration): drastically inhibited the migration
- inhibition of cell migration (GBM6 CSCs [6]; GBM6, non-cytotoxic 6 nM, 5 hours transmigration): statistically significant inhibition of cell migration
- inhibition of cell migration (GBM6 CSCs [6]; control EB1-expressing GBM6 cells, 6 nM): statistically significant inhibition of cell migration
- sphere formation (GBM6 CSCs [7]; [11]): interferes statistically significantly with sphere formation
- sphere formation (GBM6 CSCs [7]; [10]): suppresses the inhibitory activity of BAL27862
- sphere formation (GBM6 CSCs [7]; GBM6 wild-type): interferes statistically significantly with sphere formation
- EC50 (GBM9 CSCs [8]; Homo sapiens, 72 h): ~20 nM
- EC50 (GBM9 CSCs [8]): 21.7 nM
- EC50 (GBM6 CSCs [9]; Homo sapiens, GBM6, 72 h): ~20 nM
- EC50 (GBM6 CSCs [9]): 20.8 nM
